Measurements as given in paper PMC5803267, “A small molecule inhibitor of Rheb selectively targets mTORC1 signaling” (Nature Communications, 2018).

Assays:
[1] = molecular target: T1, Rheb-dependent mTORC1 kinase activity (Homo sapiens, UniProt Q15382); experiment: Rheb-dependent mTORC1 in vitro kinase assay (Rheb-IVK); assay type: biochemical; conditions: for inhibition of mTORC1 activity in the Rheb-IVK: result in words
T1 construct: using full-length Rheb and mTORC1 purified from mammalian cells via a Flag-Raptor handle; made in house; host or cells: HA-GST-Rheb: Freestyle 293-F cells transfected with pRK5-HA-GST-Rheb; mTORC1: HEK-293E cells stably expressing FLAG-Raptor
T1 sequence (Q15382 1-181 limits assumed): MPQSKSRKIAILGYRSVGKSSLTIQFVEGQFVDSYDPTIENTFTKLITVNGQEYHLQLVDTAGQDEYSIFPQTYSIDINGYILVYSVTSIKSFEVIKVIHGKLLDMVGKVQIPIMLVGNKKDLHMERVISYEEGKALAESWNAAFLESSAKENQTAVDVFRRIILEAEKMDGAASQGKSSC

[2] = tested on: S473pAKT (mTORC2) in PC3 cells; experiment: Chronic treatment of PC3 cells, S473pAKT Western blot; assay type: cell-based, human; conditions: PC3, replete, 24 h; NR1 30 µM, rapamycin 100 nM
Method: (§1) MCF-7 cells were serum-starved for 16 h and treated with compound for 90 min before cell lysis and Western blot analysis. For insulin-stimulated cells, 100 nM insulin was added 30 min before cell lysis. For EGF-stimulated cells, 100 ng mL^−1 EGF was added 10 min before cell lysis. c Rap1 activity was detected in lysates loaded in vitro with either GDP or GTPγS and treated with NR1 at the indicated concentrations. This was followed by a subsequent pulldown of GST-RalGDS-RBD. Bound Rap1 was detected by Western blot. d Evaluation of NR1 in a LAM patient-derived cell line (TRI102) under replete and serum-starved conditions. For replete conditions, TRI102 cells were treated for 90 min with compound in DMEM + 10% FBS. For serum-starved conditions, TRI102 cells were serum-starved 16 h and then treated for 90 min with compound prior to cell lysis and Western blot analysis. e HEK293 cells co-transfected with the indicated mTOR constructs and HA-GST-S6K1 were starved of amino acids or treated with NR1. To assess mTORC1 activity, an HA IP was performed and Western blots probed for ^T389pS6K1. f Chronic treatment of PC3 cells with NR1 to evaluate the inhibition of mTORC1 (using ^T389pS6K1) versus mTORC2 (using ^S473pAKT). PC3 cells were treated with compound under replete conditions for 24 h prior to cell lysis and Western blot analysis.
(§2) Accordingly, a hallmark of a selective mTORC1 inhibitor such as NR1 would be the lack of mTORC2 inhibition irrespective of the duration of treatment. PC3 cells are sensitive to mTORC2 inhibition with long-term rapamycin treatment. Indeed, upon treatment with rapamycin for 24 h, both ^T389pS6K1 and ^S473pAKT were lowered, indicating inhibitory effects on both mTORC1 and mTORC2, respectively.
(§3) For Western-based signaling assays, cells were treated for either 90 min or 2–24 h as indicated before lysis, normalization, and Western analysis. Cells were lysed in Triton lysis buffer: 1% Triton X-100, 50 mM HEPES pH 7.4, 100 mM NaCl, 2 mM EDTA, 10 mM β-glycerophosphate, 10 mM Na-pyrophosphate, protease inhibitor.

[3] = tested on: T389pS6K1 (mTORC1) in PC3 cells; experiment: Chronic treatment of PC3 cells, T389pS6K1 Western blot; assay type: cell-based, human; conditions: PC3, replete, 24 h; NR1 30 µM, rapamycin 100 nM
Method: as §1, §2, §3

Row | Compound | IC50 ([1]; LanthaScreen TR-FRET format, T46p4E-BP1 antibody, read-out: IC50 in the Rheb-IVK) [nM] | inhibition of mTORC1 activity in the Rheb-IVK [1] | S473pAKT after 24 h treatment [2] | T389pS6K1 after 24 h treatment [3]
1 | CCC(=O)N1CCN(c2ccc(-n3c(=O)ccc4cnc5ccc(-c6cnc7ccccc7c6)cc5c43)cc2C(F)(F)F)CC1 [Torin-1] | 2 | inhibited mTORC1 activity | – | –
2 | CO[C@H]1C[C@@H]2CC[C@@H](C)[C@@](O)(O2)C(=O)C(=O)N2CCCC[C@H]2C(=O)O[C@H]([C@H](C)C[C@@H]2CC[C@@H](O)[C@H](OC)C2)CC(=O)[C@H](C)/C=C(\C)[C@@H](O)[C@@H](OC)C(=O)[C@H](C)C[C@H](C)/C=C/C=C/C=C/1C [rapamycin, reference compound] | – | no inhibition | lowered | lowered
